Source: patent publication US5346828A, “Stereoisomeric enrichment of 2-amino-3-hydroxy-3-phenylpropionic acids using d-threonine aldolase” (Celgene Corporation, priority 1992, dated 1994)

Assay: incubation of substrate in the same buffer without enzyme (Enzyme 0), HPLC
Format: physicochemical
Method: D,L-Threo 2-amino-2-methyl-3-hydroxy-3-phenylpropionic acid (14.1 mM) is incubated at pH 8.75 in 50 mM borate buffer and 0.8 mM pyridoxal phosphate with ruptured cells containing approximately 300 μL of enzyme.
At time intervals of approximately 30, 120 and 210 minutes, 200 μL of the incubation mixture are removed and diluted with 800 μL of 1% perchloric acid. After centrifugation of this mixture, the supernatant is analyzed on HPLC.

- Percentage of total area attributable to benzaldehyde and benzoic acid (30 min.): 0%
- Percentage of total area attributable to benzaldehyde and benzoic acid (120 min.): 2.2%
- Percentage of total area attributable to benzaldehyde and benzoic acid (210 min.): 3.7%
Compound: N[C@H](C(=O)O)[C@H](O)c1ccccc1 (relative stereo) [t.phi.S, 2amino-3-hydroxy-3-phenylpropionic acid]
